Data as given in patent US12060588B2, “Methods of editing DNA methylation” (Whitehead Institute for Biomedical Research, priority 2016, dated 2024).

Key:
BDNF promoter IV = assay: Bisulfite sequencing of BDNF promoter IV in mouse cortical neurons; format: cell-based; conditions: with 4 BDNF gRNAs, in contrast to gRNA negative controls
Method: FIGS. 3A-3E depict targeted demethylation of BDNF promoter IV by dCas9-Tet1 to activate BDNF in neurons. FIG. 3A provides a schematic representation of targeting BDNF promoter IV by dCas9-Tet1 (dC-T) with specific gRNAs to erase methylation and activate BDNF expression. […] Bars are mean t SD of three biological replicates. FIG. 3C provides representative confocal images for BDNF induction in FIG. 3B. Top panel: BDNF expression was induced by 50 mM KCl treatment for 6 hrs. […] Stained in red for MAP2 (top two panels) or Cherry (bottom two panels), green for BDNF, blue for DAPI and grey for dCas9. Scale bar: 50 um. FIG. 3D depicts bisulfite sequencing of neurons in FIG. 3C. […] Shown is the mean percentage±SD of two biological replicates.
DNA replication-independent active demethylation has been proposed to operate in post-mitotic neurons (Guo et al., 2011; Martinowich et al., 2003). To test whether active demethylation can be induced in post-mitotic neurons, we applied the dCas9-Tet1 system to study the regulation of the BDNF gene. BDNF expression can be induced by neuronal activity accompanied by demethylation of its promoter IV (Chen et al., 2003; Martinowich et al., 2003). We designed 4 gRNAs targeting 11 CpGs in BDNF promoter IV (FIG. 11A) to determine whether dCas9-Tet1 can activate BDNF by inducing demethylation of this promoter (FIG. 3A). […]

[1] = test system: Snrpn promoter region and adjacent Dazl locus; assay: Bisulfite sequencing of the Dazl-Snrpn region in mESCs; format: cell-based, mouse; conditions: with target gRNAs
Method: FIGS. 1A-IF depict activation of the Daz1-Snrpn-GFP reporter by dCas9-Tet1. […] FIG. 1B is a schematic representation of targeting the Snrpn promoter region by dCas9-Tet1 with specific gRNAs to erase methylation and activate GFP expression. […] Percentage of GFP positive cells were calculated by flow cytometric analysis of these cells 3-day post infection, and shown as the mean percentages of GFP positive cells±SD of two biological replicates. Note that the percentages of GFP-positive cells are expressed as the fraction of infected Cherry-positive cells. […] Scale bar: 250 um. Right: provides percentages of GFP positive colonies were quantified, and shown as the mean percentages of GFP positive cells±SD of two biological replicates. […] FIG. 1F provides methylation levels of individual CpGs in the Snrpn promoter region and the adjacent Dazl locus. Shown is the mean percentage±SD of two biological replicates.
Demethylation of specific CpGs: To test whether defined sequences could be demethylated, we introduced the dCas9-Tet1 construct in combination with gRNAs to target the Snrpn-GFP reporter inserted into the Dazl promoter (FIG. 1B and FIG. 9A). […] To assess the activation efficiency by dCas9-Tet1 with target gRNAs, we analyzed the cells infected by both viruses using FACS. […] We further analyzed the GFP-positive and -negative populations within infected Cherry-positive cells. […]

[2] = test system: off-target binding sites at Vac14, Tenm4, Vrk1 and Gm42619 loci; assay: Bisulfite sequencing of off-target binding sites; format: cell-based, mouse

**Q.** How did the “methylation of BDNF promoter IV” value (BDNF promoter IV) turn out when “dCas9-Tet1: catalytically inactive Cas9 (dCas9) fused through NLS to the Tet1 catalytic domain, SEQ ID NO: 159; lentivirally expressed with gRNAs” was run?
**A.** significantly reduced methylation

**Q.** What about the “methylation status of Snrpn promoter region and adjacent Dazl locus” value [1] of the same substance?
**A.** robust demethylation only in the Snrpn promoter region but not the adjacent Dad locus

**Q.** And the “change in methylation level at second and third strongest (off-target) binding sites” value [2]?
**A.** only marginal change in methylation level
